Target: T1, hNav1.7 (Homo sapiens, UniProt Q15858)
T1 construct: expressed in transfected cells
Assay: Tritiated sulfonamide binding to membranes from cells expressing hNav1.7 and the β1 subunit (Nav 1.7 ligand binding assay, competitive)
Conditions: competition with 100 pM [3H]compound, room temperature, 18 h

T1 sequence (Q15858 whole entry): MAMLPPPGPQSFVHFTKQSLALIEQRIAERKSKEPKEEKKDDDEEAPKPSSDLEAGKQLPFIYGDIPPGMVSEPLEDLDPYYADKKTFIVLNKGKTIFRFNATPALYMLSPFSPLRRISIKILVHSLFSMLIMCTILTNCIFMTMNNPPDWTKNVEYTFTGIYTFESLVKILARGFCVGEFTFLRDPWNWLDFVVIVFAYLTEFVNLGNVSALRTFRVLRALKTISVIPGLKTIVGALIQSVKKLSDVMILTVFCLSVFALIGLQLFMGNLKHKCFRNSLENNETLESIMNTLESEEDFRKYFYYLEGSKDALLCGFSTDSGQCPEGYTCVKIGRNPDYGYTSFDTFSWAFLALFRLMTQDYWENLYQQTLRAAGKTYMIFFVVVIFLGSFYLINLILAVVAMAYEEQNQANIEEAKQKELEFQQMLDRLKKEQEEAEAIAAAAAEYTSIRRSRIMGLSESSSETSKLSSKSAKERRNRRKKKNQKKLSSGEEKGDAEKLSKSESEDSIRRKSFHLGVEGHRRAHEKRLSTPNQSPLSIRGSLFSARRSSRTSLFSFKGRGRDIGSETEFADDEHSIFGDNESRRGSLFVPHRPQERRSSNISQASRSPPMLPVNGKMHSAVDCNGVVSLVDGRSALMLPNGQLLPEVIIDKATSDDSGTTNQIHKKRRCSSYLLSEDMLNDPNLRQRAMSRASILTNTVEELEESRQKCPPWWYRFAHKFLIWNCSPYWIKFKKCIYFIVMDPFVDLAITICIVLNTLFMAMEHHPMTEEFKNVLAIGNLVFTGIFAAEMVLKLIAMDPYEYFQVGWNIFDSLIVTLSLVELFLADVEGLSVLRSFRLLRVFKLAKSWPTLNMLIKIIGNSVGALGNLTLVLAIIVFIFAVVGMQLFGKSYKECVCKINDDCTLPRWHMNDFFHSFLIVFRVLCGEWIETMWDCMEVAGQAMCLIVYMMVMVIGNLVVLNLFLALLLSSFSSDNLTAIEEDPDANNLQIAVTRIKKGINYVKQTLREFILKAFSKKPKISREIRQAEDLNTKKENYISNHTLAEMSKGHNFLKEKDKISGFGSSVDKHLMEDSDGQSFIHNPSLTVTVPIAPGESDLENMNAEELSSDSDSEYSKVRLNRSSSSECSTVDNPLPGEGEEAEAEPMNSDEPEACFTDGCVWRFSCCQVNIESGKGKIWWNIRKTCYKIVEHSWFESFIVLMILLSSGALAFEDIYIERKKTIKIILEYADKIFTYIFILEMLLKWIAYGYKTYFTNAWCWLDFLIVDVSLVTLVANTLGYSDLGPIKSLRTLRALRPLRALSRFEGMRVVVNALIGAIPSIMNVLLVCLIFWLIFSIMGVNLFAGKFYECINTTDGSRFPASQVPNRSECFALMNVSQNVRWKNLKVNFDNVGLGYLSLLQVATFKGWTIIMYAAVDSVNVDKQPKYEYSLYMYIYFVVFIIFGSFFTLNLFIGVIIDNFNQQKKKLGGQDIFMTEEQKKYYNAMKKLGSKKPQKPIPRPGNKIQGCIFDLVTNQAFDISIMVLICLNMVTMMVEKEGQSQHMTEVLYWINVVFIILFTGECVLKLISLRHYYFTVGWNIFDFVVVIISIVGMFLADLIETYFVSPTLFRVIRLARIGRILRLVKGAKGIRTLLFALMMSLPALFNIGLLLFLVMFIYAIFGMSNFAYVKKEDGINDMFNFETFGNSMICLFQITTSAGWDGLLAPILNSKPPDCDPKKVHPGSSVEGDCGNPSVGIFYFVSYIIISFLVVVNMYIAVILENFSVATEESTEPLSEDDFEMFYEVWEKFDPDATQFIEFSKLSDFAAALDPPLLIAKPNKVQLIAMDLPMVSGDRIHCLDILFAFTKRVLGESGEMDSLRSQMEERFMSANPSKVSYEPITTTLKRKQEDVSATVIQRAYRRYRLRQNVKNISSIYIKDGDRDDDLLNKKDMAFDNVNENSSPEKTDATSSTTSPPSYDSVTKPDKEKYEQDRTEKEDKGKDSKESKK
T1 sequence (Q07699 19-218 partner): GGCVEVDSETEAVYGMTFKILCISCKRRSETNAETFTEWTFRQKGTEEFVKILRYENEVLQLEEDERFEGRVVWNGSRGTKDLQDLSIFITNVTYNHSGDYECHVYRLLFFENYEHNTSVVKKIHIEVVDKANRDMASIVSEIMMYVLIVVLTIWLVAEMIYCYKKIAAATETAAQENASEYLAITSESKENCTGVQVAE

Row | Structure (SMILES) | IC50 [nM]
1 | CS(=O)(=O)NC(=O)c1cc(C2CC2)c(OCC2CCN(Cc3cc(Cl)cc(C(F)(F)F)n3)CC2)cc1F [Example 53, 4-((1-((4-chloro-6-(trifluoromethyl)pyridin-2-yl)methyl)piperidin-4-yl)methoxy)-5-cyclopropyl-2-fluoro-N-(methylsulfonyl)benzamide] | 9.4
2 | CC(C)Oc1ncc(CN2CCC(F)(COc3cc(F)c(C(=O)NS(=O)(=O)C4CC4)cc3C3CC3)CC2)cc1Cl [Example 56, 4-((1-((5-chloro-6-isopropoxypyridin-3-yl)methyl)-4-fluoropiperidin-4-yl)methoxy)-5-cyclopropyl-N-(cyclopropylsulfonyl)-2-fluorobenzamide] | 6.8
3 | C[C@@H](c1cc(F)cc(Cl)c1)N1CCC(F)(COc2cc(F)c(C(=O)NS(C)(=O)=O)cc2C2CC2)CC1 (single isomer, unassigned) [Example 24] | 4.1
4 | O=C(NS(=O)(=O)C1CC1)c1cc(C2CC2)c(OCC2CCN(Cc3cc(Cl)cc(C(F)(F)F)n3)CC2)cc1F [Example 54] | 4.2
5 | CS(=O)(=O)NC(=O)c1cc(C2CC2)c(OCC2CCN(Cc3cc(Cl)cc(OC4CC4)c3)CC2)cc1F [Example 28, 4-((1-(3-Chloro-5-cyclopropoxybenzyl)piperidin-4-yl)methoxy)-5-cyclopropyl-2-fluoro-N-(methylsulfonyl)benzamide] | 6

Source: patent US10179767B2 (GENENTECH, INC., priority 2015, dated 2019)
